From the supplement of paper PMC6045584
± gives the standard deviation of the averaged measurements.

Key:
[1] = compound: COc1cc2ncnc(Nc3ccc(F)c(Cl)c3)c2cc1NC(=O)/C=C/CN1CCCCC1; test: surviving fraction relative to DMSO-only wells; higher = less growth inhibition; settings: exposure time: 5 days
Procedure, shortened: (§1)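 For each tumour cell line, log-phase cells were put into 384-well plates at 250–500 cells per well, then after 24 hours exposed continuously for five days to inhibitors at 0.5, 1, 5, 10, 50, 100, 500 and 1000 nM. Viability was assessed by CellTiter-Glo luminescence, with surviving fraction expressed relative to the median of DMSO-only wells. Lines were screened three times and retained only if replicate Pearson r exceeded 0.7 and median Z' exceeded 0.3.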

[2] = compound: C[C@@H](Oc1cc(-c2cnn(C3CCNCC3)c2)cnc1N)c1c(Cl)ccc(F)c1Cl; test: as above; settings: exposure time: 5 days
Procedure, shortened: as §1

| Test System | surviving fraction ([1]; 0.5 nM) | surviving fraction ([1]; 1 nM) | surviving fraction ([1]; 5 nM) | surviving fraction ([1]; 10 nM) | surviving fraction ([1]; 50 nM) | surviving fraction ([1]; 100 nM) | surviving fraction ([1]; 500 nM) | surviving fraction ([1]; 1000 nM) | surviving fraction ([2]; 0.5 nM) | surviving fraction ([2]; 5 nM) | surviving fraction ([2]; 50 nM) | surviving fraction ([2]; 100 nM) | surviving fraction ([2]; 500 nM) | surviving fraction ([2]; 1000 nM) | surviving fraction ([2]; 1 nM) | surviving fraction ([2]; 10 nM) |
| --- | --- | --- | --- | --- | --- | --- | --- | --- | --- | --- | --- | --- | --- | --- | --- | --- |
| H23 LUNG | 0.91 ± 0.056 | 0.744 ± 0.035 | 0.468 ± 0.015 | 0.414 ± 0.026 | 0.381 ± 0.013 | 0.38 ± 0.018 | 0.332 ± 0.023 | 0.292 ± 0.023 | 0.9503 ± 0.0081 | 0.963 ± 0.034 | 0.9953 ± 0.0047 | 0.993 ± 0.023 | 0.926 ± 0.049 | 0.688 ± 0.019 |  |  |
| HCC78 LUNG | 0.902 ± 0.2 | 0.733 ± 0.13 | 0.87 ± 0.051 | 0.827 ± 0.21 | 0.749 ± 0.12 | 0.857 ± 0.086 | 0.595 ± 0.23 | 0.447 ± 0.02 | 0.898 ± 0.19 | 1.05 ± 0.099 | 0.421 ± 0.08 | 0.455 ± 0.15 | 0.166 ± 0.012 | 0.069 ± 0.021 | 0.978 ± 0.1 | 0.838 ± 0.16 |
| HCC202 BREAST | 1.1 ± 0.1 | 1.06 ± 0.15 | 0.723 ± 0.13 | 0.757 ± 0.14 | 0.373 ± 0.041 | 0.297 ± 0.067 | 0.131 ± 0.026 | 0.0933 ± 0.023 | 1.31 ± 0.55 | 1.31 ± 0.015 | 1.32 ± 0.23 | 1.37 ± 0.17 |  |  | 1.08 ± 0.25 | 1.05 ± 0.069 |
| HCC1395 BREAST | 0.92 ± 0.09 | 0.93 ± 0.037 | 1.08 ± 0.099 | 1.03 ± 0.036 | 1.05 ± 0.16 | 1.01 ± 0.21 | 0.896 ± 0.14 | 0.809 ± 0.15 | 0.831 ± 0.14 | 0.814 ± 0.074 | 1.01 ± 0.11 | 1 ± 0.065 |  | 1 ± 0.089 | 0.74 ± 0.087 | 0.838 ± 0.097 |
| HCC1806 BREAST | 1.11 ± 0.16 | 1.05 ± 0.11 | 1 ± 0.083 | 0.79 ± 0.046 | 0.663 ± 0.087 | 0.573 ± 0.014 | 0.458 ± 0.052 | 0.322 ± 0.022 | 0.818 ± 0.034 | 0.87 ± 0.029 | 1.06 ± 0.11 | 0.862 ± 0.018 | 0.502 ± 0.022 | 0.273 ± 0.0078 | 0.74 ± 0.067 |  |
| HCC1954 BREAST | 1.11 ± 0.075 | 0.808 ± 0.064 | 0.756 ± 0.028 | 0.722 ± 0.084 | 0.508 ± 0.0074 | 0.471 ± 0.0092 | 0.283 ± 0.013 | 0.155 ± 0.018 | 0.364 ± 0.042 | 0.426 ± 0.06 | 0.472 ± 0.019 | 0.473 ± 0.036 | 0.443 ± 0.11 | 0.4677 ± 0.0032 | 0.353 ± 0.084 | 0.401 ± 0.021 |
| HCT15 LARGE INTESTINE | 1.03 ± 0.044 | 1.09 ± 0.06 | 1.05 ± 0.043 | 1.06 ± 0.069 | 1.02 ± 0.033 | 1.06 ± 0.031 | 1.03 ± 0.088 | 0.821 ± 0.057 | 0.88 ± 0.058 | 0.895 ± 0.03 | 0.959 ± 0.024 |  | 0.889 ± 0.042 | 0.165 ± 0.0046 | 0.88 ± 0.054 |  |
| HELA CERVIX | 1.07 ± 0.055 | 1.07 ± 0.051 | 1 ± 0.076 | 1.04 ± 0.023 | 1.18 ± 0.038 | 1.17 ± 0.025 | 1.19 ± 0.072 | 1.13 ± 0.071 | 0.969 ± 0.02 | 0.948 ± 0.018 | 1.02 ± 0.027 | 1.06 ± 0.055 | 0.811 ± 0.05 | 0.258 ± 0.015 |  | 0.895 ± 0.072 |
| HOS BONE | 1.017 ± 0.0078 | 1 ± 0.018 | 1.02 ± 0.017 | 1.02 ± 0.015 | 1.05 ± 0.019 | 1.04 ± 0.023 | 0.951 ± 0.057 | 0.888 ± 0.032 | 0.934 ± 0.018 | 0.966 ± 0.03 | 1.008 ± 0.0042 | 0.997 ± 0.038 | 0.571 ± 0.029 | 0.499 ± 0.023 | 0.938 ± 0.019 |  |
| HOSMNG BONE | 0.909 ± 0.07 | 0.924 ± 0.11 | 0.958 ± 0.063 | 0.917 ± 0.086 | 1.033 ± 0.0083 | 1.02 ± 0.046 | 0.97 ± 0.1 | 0.953 ± 0.017 | 0.985 ± 0.018 | 0.949 ± 0.016 | 0.637 ± 0.066 | 0.518 ± 0.016 | 0.262 ± 0.013 | 0.17 ± 0.0051 | 1 ± 0.02 | 0.949 ± 0.039 |
| HSSYII SYNOVIAL | 0.98 ± 0.031 | 0.942 ± 0.038 | 0.966 ± 0.054 | 0.942 ± 0.03 | 0.928 ± 0.059 | 0.927 ± 0.045 | 0.715 ± 0.041 | 0.495 ± 0.0068 | 0.85 ± 0.056 | 0.81 ± 0.03 | 0.848 ± 0.021 | 0.794 ± 0.035 | 0.261 ± 0.0051 | 0.122 ± 0.01 | 0.882 ± 0.039 | 0.861 ± 0.036 |
| HT1080 SOFT TISSUE | 1.02 ± 0.015 | 1.01 ± 0.023 | 0.964 ± 0.0098 | 0.984 ± 0.026 | 1.03 ± 0.015 | 0.981 ± 0.034 | 0.9 ± 0.04 | 0.751 ± 0.045 | 1 ± 0.018 | 1.02 ± 0.011 |  |  | 0.953 ± 0.036 | 0.638 ± 0.047 |  | 0.991 ± 0.059 |
| HU09 BONE | 1.09 ± 0.03 | 0.996 ± 0.062 | 1.14 ± 0.028 | 1.11 ± 0.12 | 1.15 ± 0.019 | 1.01 ± 0.12 | 0.635 ± 0.0066 | 0.432 ± 0.026 |  |  |  | 0.841 ± 0.014 | 0.388 ± 0.053 | 0.197 ± 0.018 | 0.889 ± 0.033 | 0.95 ± 0.07 |
| HUO3N1 BONE | 1.03 ± 0.037 | 0.983 ± 0.057 | 1.06 ± 0.065 | 1 ± 0.016 | 1.07 ± 0.073 | 1.03 ± 0.059 | 0.789 ± 0.018 | 0.629 ± 0.032 |  | 0.971 ± 0.034 | 0.974 ± 0.02 | 0.954 ± 0.029 | 0.842 ± 0.019 | 0.695 ± 0.031 |  |  |
| JIMT1 BREAST | 1 ± 0.044 | 0.989 ± 0.031 | 0.91883 ± 0.00029 | 0.862 ± 0.012 | 0.653 ± 0.013 | 0.667 ± 0.016 | 0.545 ± 0.019 | 0.362 ± 0.025 | 0.869 ± 0.035 | 0.893 ± 0.04 | 0.971 ± 0.045 | 0.959 ± 0.038 | 0.634 ± 0.075 | 0.517 ± 0.042 | 0.834 ± 0.024 | 0.862 ± 0.033 |
| JURKAT HAEMATOPOIETIC AND LYMPHOID TISSUE | 1.08 ± 0.037 | 1.06 ± 0.029 | 1.06 ± 0.043 | 1.02 ± 0.017 | 1.03 ± 0.026 | 1.04 ± 0.034 | 0.881 ± 0.056 | 0.297 ± 0.025 | 0.993 ± 0.024 |  | 0.984 ± 0.021 | 0.943 ± 0.019 | 0.235 ± 0.013 | 0.195 ± 0.013 | 0.993 ± 0.029 | 0.98 ± 0.013 |
| KPD BONE | 1.03 ± 0.068 | 1.05 ± 0.04 | 1.04 ± 0.037 | 1.04 ± 0.015 | 1.05 ± 0.079 | 1.04 ± 0.019 | 0.718 ± 0.034 | 0.493 ± 0.025 | 0.886 ± 0.043 | 0.974 ± 0.039 | 0.987 ± 0.083 |  | 0.518 ± 0.011 | 0.156 ± 0.012 | 0.87 ± 0.013 |  |
